Assay results published in US20230310441A1, “TREATMENT FOR SCHIZOPHRENIA” (TAKEDA PHARMACEUTICAL COMPANY, priority 2020, published 2023).
Read-outs that look alike come from different tables or passages of the source. Marks after values point to notes of the source that are not given here.

Key:
[1] = test system: endogenous dopamine release in the human brain; experiment: [^11C]PHNO PET of endogenous dopamine release after d-AMPH challenge; assay type: in vivo; conditions: for ΔΔBPND Mean (SD), Ca / ΔΔBPND Mean (SD), GP / ΔΔBPND Mean (SD), Pu / ΔΔBPND Mean (SD), SN / ΔΔBPND Mean (SD), VSt: attenuation of d-AMPH effect
Experimental: A T1-weighted magnetic resonance imaging (MRI) scan of the brain, performed at screening, was used to obtain anatomical information required for PET data analysis. Each subject underwent three [^11C]PHNO PET scans, one at baseline, the second approximately 3 h after a single oral dose of dex-amphetamine (d-AMPH, 0.5 mg/kg), and the third approximately 5 h after a single oral dose of Compound (I) (20 or 40 mg) and 3 h after an oral dose of dex-amphetamine (d-APMH) (0.5 mg/kg) (FIG. 2).
Subjects were positioned in the PET scanner, after the insertion of a venous cannula in an antecubital or forearm vein. Soft padding and head restraints were used to minimize head movement during data acquisition. All dynamic [^11C]PHNO PET scans were acquired on Siemens Biograph 6 PET/CT scanners (Hi-Rez (PET/CT1) or a TruePoint with TrueV, Siemens Healthcare, Erlangen, Germany). All scans for a particular subject were acquired on the same scanner. A low-dose computed tomography (CT) scan was performed immediately before each PET study to estimate signal attenuation. Following an intravenous bolus injection of [^11C]PHNO, dynamic emission data were acquired for 90 min in 26 frames of increasing duration. The dynamic images were reconstructed using Fourier rebinning and a 2D filtered discrete inverse Fourier transform algorithm with 5 mm isotropic Gaussian filter on a 128×128 matrix with 2.6 zoom giving 2 mm isotropic voxels. Appropriate corrections were applied for attenuation, randoms, and scatter.
The primary set of ROIs defined were the ventral striatum (VSt), putamen (Pu) and cerebellum. […] The cerebellum was used as a reference region. An additional set of ROIs including the caudate nucleus (Ca), globus pallidus (GP) and substantia nigra (SN) was also evaluated.
Regional TAC data extracted from the PET images were fitted using a basis function implementation of the SRTM (Gunn et al., 1997) to estimate the binding potential relative to the non-displaceable component (BPND) for each PET scan, as a measure of specific binding (Innis et al., 2007).
Reduction in [^11C]-PHNO specific binding following a d-AMPH challenge (ΔBPND^APMH) was quantified as percent change in postdose BPND (BPND^AMPH) from baseline BPND (BPND^BL):
Reduction in [^11C]-PHNO specific binding following a combination of Compound (I) and d-AMPH (ΔBPND^APMH+C1) was quantified as percent change in postdose BPND (BPND^AMPH+C1) from baseline BPND (BPND^BL):
The effect of Compound (I) (ΔΔBPND) was quantified as the percent change BPND in ΔBPND^APMH+C1 compared to ΔBPND^APMH:
All statistical comparisons were conducted using Student's t-tests for each ROI, using paired tests for within subject comparisons, and unpaired tests for between group comparisons.

[2] = Phase 2 crossover study: plasma pharmacokinetics in schizophrenia subjects; assay type: in vivo, human; conditions: for AUC(0-inf) / Cmax / Tmax: human, plasma, schizophrenia subjects; for Tmax: read-out: median tmax
Experimental: On Day 1 of each treatment period, following study drug administration, and commencing at approximately 2 h post-dose, subjects underwent PD tests for a total of approximately 4 h. Blood samples were collected at defined times after dosing to assess the PK of Compound (I). After the last PK collection at 6 h post-dose, subjects left the clinic. On Day 14 of each Treatment Period, subjects took the second set of PD tests along with a single time point PK collection. Samples for PK were also collected on Day 49 and at the final visit of the second treatment period. PD testing were performed in 3 blocks, separated by 2 breaks. The first block comprised the Grip Effort Task, the Progressive Ratio Test, and the Brief Assessment of Cognition in Schizophrenia (BACS). The BACS is a reliable and sensitive test battery specifically designed to efficiently assesses important cognitive deficits in patients with schizophrenia; accordingly, the BACS is suited for repeated testing in a clinical trial setting (Keefe et al., 2004). […] The following domains of cognitive function found to be consistently impaired in schizophrenia were assessed in this study: verbal memory; working memory; motor function; attention and processing speed; verbal fluency; and executive function. A composite score was calculated from each of the subset scores and used as a single endpoint for the assessment.
Dosing involved participants drinking a single bottle of oral suspension, containing either Compound (I) (40 or 160 mg Compound (I) mixed with 70 mL Tween/MC vehicle) or placebo (70 mL of Tween/MC vehicle) (Table 11). Participants were instructed to drink the full contents of the bottle, which was then rinsed twice with 35 mL water, which participants also drank. The initial dose level selected was 40 mg, which was adjusted to 160 mg following a planned interim analysis of available PK and safety data from emerging first-in-human cohort data.
The PK set consisted of all subjects who received at least 1 dose of study drug and had at least 1 measurable plasma concentration.
Compound (I) plasma concentrations were tabulated and summarized by descriptive statistics at each scheduled time point (mean, median, SD, percent coefficient of variation, minimum, and maximum) for each treatment and dose level. Individual subject plasma concentration data were listed.
The plasma PK parameters of Compound (I) were determined from the concentration-time profiles for all evaluable subjects. Actual sampling times, rather than scheduled sampling times, were used in all computations involving sampling times. The following PK parameters were calculated using non-compartmental analysis using Phoenix WinNonLin (version 6.3 or higher): area under the plasma concentration-time curve from time 0 to time t, area under the plasma concentration-time curve from time 0 to infinity (AUC∞), maximum observed plasma concentration (Cmax), time of first occurrence of Cmax (tmax), and terminal disposition phase half-life.

C[C@H](NC(=O)Cn1nnc2ccccc2c1=O)c1ccc(OC(F)(F)F)cc1 [Compound (I), (S)-2-(4-oxobenzo[d][1,2,3]triazin-3(4H)-yl)-N-(1-(4-(trifluoromethoxy)phenyl)ethyl)acetamide]
dose effect on ΔΔBPND, 40 mg group vs 20 mg group ([1]; Pu and GP, one-tailed t-tests, p<0.01): significantly greater than that in the 20 mg group | effect of pre-treatment on the d-AMPH challenge ([1]; all ROI, significant in Pu, VSt and SN): attenuated the effect of the d-AMPH challenge in all ROI examined | ΔΔBPND Mean (SD), Ca ([1]; 20 mg single oral dose): −4.2 (59.2) % | ΔΔBPND Mean (SD), GP ([1]; 20 mg single oral dose): −3.2 (19.7) % | ΔΔBPND Mean (SD), Pu ([1]; 20 mg single oral dose): 16.4 (11.3)* % | ΔΔBPND Mean (SD), SN ([1]; 20 mg single oral dose): 25.6 (49.7) % | ΔΔBPND Mean (SD), VSt ([1]; 20 mg single oral dose): 13.8 (14.1)* % | ΔΔBPND Mean (SD), Ca ([1]; 40 mg single oral dose): 24.8 (26.7) % | ΔΔBPND Mean (SD), GP ([1]; 40 mg single oral dose): 66.6 (32.4) % | ΔΔBPND Mean (SD), Pu ([1]; 40 mg single oral dose): 36.4 (7.7) * % | ΔΔBPND Mean (SD), SN ([1]; 40 mg single oral dose): 40.8 (58.6) % | ΔΔBPND Mean (SD), VSt ([1]; 40 mg single oral dose): 22.6 (20.3) % | ΔΔBPND Mean (SD), Ca ([1]; all subjects (20 or 40 mg)): 10.3 (45.9) % | ΔΔBPND Mean (SD), GP ([1]; all subjects (20 or 40 mg)): 31.7 (44.6) % | ΔΔBPND Mean (SD), Pu ([1]; all subjects (20 or 40 mg)): 26.4 (13.9)* % | ΔΔBPND Mean (SD), SN ([1]; all subjects (20 or 40 mg)): 33.2 (51.8)* % | ΔΔBPND Mean (SD), VSt ([1]; all subjects (20 or 40 mg)): 18.2 (17.1)* % | blood-brain barrier crossing ([1]; healthy human volunteers): readily crossed the blood-brain barrier | modulation of dopamine release ([1]; healthy human volunteers, 20 or 40 mg single oral dose): dose-dependent modulation of dopamine release | increase of mean AUC∞ for a 4-fold increase in dose ([2]; 40 to 160 mg): 3.5 fold | increase of mean Cmax for a 4-fold increase in dose ([2]; 40 to 160 mg): 2.8 fold | AUC(0-inf) ([2]; single oral dose 40 mg): 217 µg·h/mL | Cmax ([2]; single oral dose 40 mg): 549 ng/mL | Tmax ([2]; single oral dose 40 mg): 1.83 h | AUC(0-inf) ([2]; single oral dose 160 mg): 763 µg·h/mL | Cmax ([2]; single oral dose 160 mg): 1520 ng/mL | Tmax ([2]; single oral dose 160 mg): 1.92 h
